What was measured:
[1] = test system: UN1 mAb binding to UN1-positive breast and gastric cancer tissues; assay: Competition of UN1 mAb binding to cancer tissues; set-up: species or system human; conditions: Fig. S3
[2] = ELISA reactivity of immunized mice sera against G23 peptide; format: in vivo; conditions: sera of phage-immunized Balb/c mice
[3] = ELISA reactivity of immunized mice sera against scrambled peptide; format: in vivo; conditions: sera of phage-immunized Balb/c mice
[4] = test system: wild type phage; assay: ELISA reactivity of immunized mice sera against wild type phage; format: in vivo; conditions: sera of phage-immunized Balb/c mice
[5] = Balb/c mice
[6] = test system: W6/32 mAb (anti-human HLA class I antigen) binding; assay: Competition of W6/32 mAb binding; format: cell-based; conditions: Fig. S2B
[7] = test system: UN1 mAb; assay: Surface plasmon resonance, UN1 mAb immobilized on CM5 chip; format: binding, murine; conditions: Biacore 3000, UN1 mAb immobilized on CM5 chip, peptide 0.1-2.5 mM
[8] = sera, days 7-10 from the 6th boost, 5 animals/group, colorimetric assay, mean ± SEM

Sequence	competition of UN1 mAb binding to breast and gastric cancer tissues [1]	serum reactivity against G23 peptide [2]	serum reactivity against scrambled peptide [3]	antibody response against the wild type phage [4]	health of immunized mice ([5]; 5 animals/group, i.p. phage immunization)	serum IL1-β, GSH and LDH levels versus normal ([5]; phage-immunized)	GSH [5, 8]	LDH [5, 8]	IL-1β ([5]; serum, days 7-10 from the 6th boost, 5 animals/group, ELISA, mean ± SEM)	competition of W6/32 mAb binding [6]	SPR signal [7]
TPHTCKLLDECVPLW [phagotope 2/165]	competed the binding of UN1 mAb to UN1-positive breast and gastric cancer tissues	specific immune response against the UN1 mimotope G23 peptide	unreactive against the scrambled peptide	strong and comparable antibody response against the wild type phage	appeared healthy and did not show any ill-effect	in the range of normality	10.1 ± 0.9 µM	52.9 ± 15.4 IU/L	58.2 ± 0.3 pg/mL	–	–
SFAATPHTCKLLDECVPLWPAEG [G23]	competed the binding of UN1 mAb to UN1-positive breast and gastric cancer tissues	–	–	–	–	–	–	–	–	did not compete the binding of W6/32 mAb	–
TCLAPDVPEPLSHCWAGETFKLA [scrambled peptide]	–	–	–	–	–	–	–	–	–	–	failed to give the SPR signal

Reference: PMC3954431 (Molecular cancer therapeutics, 2013)
